“Also recorded” adds a separate entry of the source.
Key:
[1] = test system: TrkA/CD44v3 complex in COS-7 cells expressing TrkA and CD44v3; assay: PLA TrkA/CD44v3 complex formation in COS-7 cells; format: cell-based, African green monkey (COS-7 cells); details: COS-7 expressing TrkA and CD44v3; NGF 100 ng/ml, 0, 5 and 30 min; 30 fields per condition, three experiments
Description: Cells (10,000 cells per well) were grown on acid-washed eight-well glass slides (Thermo Scientific) in the appropriate medium supplemented with 10% FBS for 24 h. After NGF treatment, paraformaldehyde (PAF)-fixed cells were incubated with 4% bovine serum albumin (BSA) or 5% FBS (for 1 h at 20 °C), followed by overnight incubation with primary antibodies (rabbit anti-TrkA or rabbit anti-IgG + mouse anti-pan-CD44; mouse anti-CD44v3; mouse anti-CD44v6; mouse anti-IgG2a; mouse anti-IgG2b; or mouse anti-IgG1). PLA was performed following the manufacturer’s instructions in the assay kit (Duolink PLA; Sigma–Aldrich). To obtain the correct representation of the PLA signal for each condition, 30 fields per condition were observed using a fluorescence microscope (Eclipse TiU; Nikon, Japan). The PLA signals (red dots) were automatically quantified using ImageJ software (with an in-house-developed plug-in). After PLA, statistical analyses were performed using GraphPad Prism software to determine the mean dot intensity in the cells.
Fig. 1 The C-terminal region of CD44 variant 3 binds to TrkA. A Schematic representation of the CD44 gene and protein structure. Alternative splicing leads to the expression of CD44 variants, thus the insertion of exon 8 leads to the expression of a CD44 protein containing variant 3 (CD44v3) and the insertion of exon 11 leads to the expression of a CD44 containing variant 6 (CD44v6) (B) TrkA/CD44v3 complex formation in COS-7 cells expressing TrkA and CD44v3 was detected by the proximity ligation assay (PLA), which was performed 0, 5 and 30 min after the initiation of NGF (100 ng/ml) treatment. The images represent signals detected by PLA. Quantification of the red spots was performed by ImageJ software (30 randomly chosen fields per condition of three different experiments). Statistical analyses were performed using one-way ANOVA followed by Bonferroni’s posttest. Error bars represent the standard error of the mean (S.E.M.); *** p < 0.001. ns, nonsignificant. C NGF and/or TrkA binding to CD44v3 was measured by microscale thermophoresis (MST). MST experiments were performed on whole cell extracts of COS-7 cells expressing CD44v3. […]
Fig. 2 The C-terminal region of CD44v3 and the His112 residue of TrkA are involved in the CD44v3/TrkA interaction. TrkA/CD44v3 complex association was detected by the proximity ligation assay (PLA) in wild-type TrkA- or TrkA_H112A- and CD44v3-expressing COS-7 cells. […] Representative images of signals detected by PLA (A) and their quantification (B). […] TrkA/CD44v3 complex association was detected by PLA in wild-type TrkA and CD44v3 wild type or CD44v3 deleted mutant Δ3 or Δ4 expressing COS-7 (D, E). […] Quantification of PLA was performed using ImageJ software (30 fields per condition of three different experiments). […]

MDA-MB-231 cells [2] = assay: Scratch/wound migration assay, MDA-MB-231; format: cell-based; details: peptide 50 ng/mL 30 min before NGF 100 ng/ml; 24 h, 0.1% FBS; siCD44v3 24 h after treatment
Description: Scratch/wound migration assays were performed using inserts (Ibidi, Germany). MDA-MB-231 cells (4 × 10^5 cells/mL) were seeded onto each side of the chamber and incubated overnight at 37 °C until they reached the subconfluent stage. Next, the inserts were removed, and the cells were rinsed and starved (1 mL of 0.1% FBS medium for 1 h). Images of the initial wound were obtained using an inverted microscope, and the cells were incubated with or without the peptide (scramble or P4; 50 ng/mL) for 30 min and stimulated with NGF (100 ng/ml). After 24 h, images (2/wound) were obtained of the same place on the wound as those initially taken. The distance between the 2 migration fronts was measured using ImageJ software.
(§1) Fig. 4 CD44v3 mimetic peptide 4 inhibits MDA-MB-231 breast cancer cell growth and migration/invasion. Clonogenic MDA-MB-231 cell growth was measured after 10 days in the presence of a scramble peptide (SP) or CD44v3 mimetic peptide (P4) (A, B). The elongation factor (length-to-width ratio) was assessed after 10 days in the presence or absence of NGF (C, D, E). Migration assays were performed using Ibidi devices 24 h after treatment (H, I). Invasion through collagen 1 was measured by the Transwell assay 16 h after treatment (J, K). Statistical analyses were performed using one-way ANOVA followed by Bonferroni’s posttest. […]

MDA-MB-231 cells [3] = assay: Elongation factor (length-to-width ratio), MDA-MB-231; format: cell-based; details: MDA-MB-231, with NGF
Description: Therefore, in this study, we assessed TrkA binding to CD44v3 in MDA-MB-231 cells, which were used as TNBC model cells. First, PLA was performed using anti-CD44 variant 3- (Fig. 3A and Supplementary Fig. 7) or anti-CD44 variant 6-specific antibodies (Fig. 3B). […] Next, we tested the ability of CD44v3 mimetic peptides to block TrkA/CD44v3 complex formation in MDA-MB-231 cells (Fig. 3C-E). […] Therefore, we evaluated the physiological consequences of TrkA/CD44v3 complex dissociation induced by CD44v3 mimetic peptide 4 on MDA-MB-231 cell phenotypes (Fig. 4). We first examined the effect of mimetic peptide 4 on clonogenic cell growth. For this experiment, MDA-MB-231 cells were grown in the presence of 2% FBS for […] in the presence or absence of CD44v3 mimetic peptide 4 (Fig. 4A and B). […] We first determined the effect of CD44v3 on the length-to-width (l/w) ratio of the cells (elongation factor) (Fig. 4C-E). […]
as §1, with “Migration assays were performed using Ibidi devices 24 h after treatment (H, I).” left out, “K).” for “K). Statistical analyses were performed using one-way ANOVA followed by Bonferroni’s posttest.”

| Substance | effect on TrkA/CD44v3 complex formation (PLA) in COS-7 cells [1] | effect on migration (wound closure) of MDA-MB-231 cells (MDA-MB-231 cells [2]) | effect on length-to-width (l/w) ratio (elongation factor) (MDA-MB-231 cells [3]) |
| --- | --- | --- | --- |
| NGF: recombinant human β-NGF (Alomone Labs, Israel) | increased the PLA-detected TrkA/CD44v3 signal in the plasma membrane of COS-7 cells following NGF stimulation; also recorded: transient and decreased 30 min after NGF stimulation | the migration of MDA-MB-231 cells was increased, as indicated by complete wound closure 24 h after treatment | significant increase in the l/w ratio |
| IDDDEDFISST [Peptide 4, mimetic peptide 4 (…) corresponding to the C-terminal region of CD44v3] | could decrease NGF-induced TrkA/CD44v3 complex formation in COS-7 cells | completely blocked NGF-dependent wound closure | This effect of NGF was inhibited |

From publication PMC8962522, “Direct interaction of TrkA/CD44v3 is essential for NGF-promoted aggressiveness of breast cancer cells” (Journal of Experimental & Clinical Cancer Research : CR, 2022)
